Assay results reported in patent US6310072A (priority 1995, dated 2001).
“Also recorded” adds a separate entry of the source. Where two headings read alike, the source gives them in different places.

Columns and labels:
[1] = tested on: fetal dorsal root ganglion sensory neurones; conditions: cited from earlier work
Sprague-Dawley rats [2] = conditions: cited from earlier work; for ED50 / Time to maximum antinociception: i.c.v.
Dark Agouti rats [3] = type: in vivo, rat (Dark Agouti); conditions: any time
Dark Agouti rats [4] = tested on: Dark Agouti rats; design: species or system rat (Dark Agouti); conditions: rat, in vivo, sc
humans = conditions: naive human adult, every four hours, cited from earlier work
Sprague-Dawley rats [5] = type: in vivo, rat (Sprague-Dawley)
Dark Agouti rats [6] = conditions: rat, in vivo, sc
surgical patients [7] = conditions: i.v. alone; cited from earlier work
Dark Agouti rats [8] = conditions: s.c. oxycodone; cited from earlier work
surgical patients [9] = type: in vivo, human; conditions: i.v. morphine 2.0 mg plus oxycodone 2.0 mg; oxycodone 10 mg alone
Sprague-Dawley rats [10] = tested on: Sprague-Dawley rats
Sprague-Dawley rats [11] = type: in vivo, rat (Sprague-Dawley); remark: listed apart in the source
rats = conditions: systemic oxycodone; cited from earlier work
κ-opioid receptors = conditions: in vivo; cited from earlier work
[12] = cited from earlier work
κ2a-2 opioid receptor = conditions: κ2a-2 subtype; cited from earlier work
[13] = tested on: δ-opioid receptors relative to μ-opioid receptors; conditions: cited from earlier work
[14] = tested on: δ- relative to κ-opioid receptors; conditions: cited from earlier work

C=CCN1CC[C@]23c4c5ccc(O)c4O[C@H]2C(=O)CC[C@@]3(O)[C@H]1C5 [naloxone]
Action potential duration (APD) [1]: marked shortening of the action potential duration (APD) | Reversal of oxycodone/morphine antinociception by naloxone (Sprague-Dawley rats [2]; rat, in vivo): completely reversible; also recorded: completely attenuated

CN1CC[C@]23c4c5ccc(O)c4O[C@H]2[C@@H](O)C=C[C@H]3[C@H]1C5 [morphine]
Antinociception (% MPE) (Dark Agouti rats [3]; i.p. morphine 621 nmol alone): ≤ 50 % MPE | Time of onset of antinociception (%MPE≥30%) (Dark Agouti rats [4]): 22 min | Lower threshold initial dose producing analgesia (humans; intravenous): 4 to 5 mg | Lower threshold initial dose producing analgesia (humans; oral): 30 mg | Degree of antinociception (%MPE) (Sprague-Dawley rats [5]; i.c.v. morphine 15 nmol alone, any time in 3 h): ≤ 20% | Failure of eye reflex test (Dark Agouti rats [6]): approximately 40 % of the time | Failure of righting reflex test (Dark Agouti rats [6]): approximately 33 % of the time | Dose used for intubation (surgical patients [7]): approximately 10 mg | ED50 (Sprague-Dawley rats [2]): 34 nmol

COc1ccc2c3c1O[C@H]1C(=O)CC[C@@]4(O)[C@@H](C2)N(C)CC[C@]314 [oxycodone]
Antinociception (% MPE) (Dark Agouti rats [3]; i.p. oxycodone 571 nmol alone): ≤ 50 % MPE | Antinociception (Dark Agouti rats [8]): achieved maximum antinociception | Onset of clinical effect (surgical patients [9]): ~5 min | ED50 oxycodone dose (Dark Agouti rats [4]): 0.44 (±0.04) mg | Time of onset of antinociception (%MPE≥30%) (Dark Agouti rats [4]): 12 min | Time to maximum antinociception (Tmax) (Dark Agouti rats [4]): 20 min | Lower threshold initial dose producing analgesia (humans; oral): 10 mg | Catatonic behaviour (Sprague-Dawley rats [10]; i.c.v. oxycodone 200 nmol): nor did they exhibit the catatonic behaviour | Spontaneous bladder emptying or incontinence (Sprague-Dawley rats [10]; i.c.v., oxycodone 200 nmol, morphine 78 nmol): did not exhibit any signs of spontaneous bladder emptying or incontinence | Duration of antinociception (Sprague-Dawley rats [5]; i.c.v. equipotent doses administered separately): 90 min | Antinociception (Sprague-Dawley rats [5]; i.c.v. oxycodone 40 nmol alone): no antinociception was observed; also recorded: most of the %MPE values were negative | Time of peak antinociception (Sprague-Dawley rats [11]; i.c.v. oxycodone 200 nmol): 5 min | Time to return to baseline values (Sprague-Dawley rats [11]; i.c.v. oxycodone 200 nmol): ≤ 90 min | Antinociception peak (% MPE) (Sprague-Dawley rats [11]; i.c.v. oxycodone 200 nmol, 5 min): 100 % MPE | Duration of action of oxycodone (Sprague-Dawley rats [11]; oxycodone 200 nmol i.c.v. alone): 90 min | Failure of eye reflex test (Dark Agouti rats [6]): approximately 40 % of the time | Failure of righting reflex test (Dark Agouti rats [6]): ~50 % of the time | Loss of landing reflex (Dark Agouti rats [6]): no loss of the landing reflex | Loss of righting or landing reflexes (Dark Agouti rats [6]): no loss of the righting or landing reflexes | Sedation (Dark Agouti rats [6]): markedly sedated compared with control rats | Dose used for intubation (surgical patients [7]): approximately 10 mg | Reversal of oxycodone/morphine antinociception by naloxone (Sprague-Dawley rats [2]; i.c.v. naloxone (55 nmol)): naloxone-reversible antinociceptlon | Time by which antinociception is essentially complete (Sprague-Dawley rats [2]; i.c.v. oxycodone, post-dosing): ≤ 90 min | ED50 (Sprague-Dawley rats [2]): 78 nmol | Time to maximum antinociception (Sprague-Dawley rats [2]): ≤ 7 min | Time to maximum antinociception (Sprague-Dawley rats [2]; listed as Oxycodone): 5 to 7 min | Catatonic behaviour (rats): catatonic behaviour observed

CCC12CCN(CC3(O)CC3)C(Cc3ccc(O)cc31)C2(C)C (centres unmarked) [bremazocine]
Antinociception profile (κ-opioid receptors): antinociception characterised by a rapid onset of action and a single antinociceptive phase

C=CCN1CC[C@]23c4c5ccc(O)c4O[C@H]2/C(=N/N=C2\CC[C@@]4(O)[C@H]6Cc7ccc(O)c8c7[C@@]4(CCN6CC=C)[C@H]2O8)CC[C@@]3(O)[C@H]1C5 [naloxonazine]
Effect on DAMGO antinociception ([12]; naloxonazine): antagonise the antinociceptive effects | Effect on DPDPE antinociception ([12]; naloxonazine): did not reduce the antinociception | Effect on morphine antinociception ([12]; naloxonazine): antagonise the antinociceptive effects | Excitatory behaviour (Sprague-Dawley rats [10]; rat, in vivo): minor excitatory behaviour (shaking and teeth chattering) | Sensitivity to external stimuli versus untreated rats (Sprague-Dawley rats [10]; rat, in vivo): more sensitive to external stimuli (touch and sound) | Duration of action of oxycodone after antagonist (Sprague-Dawley rats [11]; rat, in vivo): 60 min | Effect on morphine antinociception (Sprague-Dawley rats [11]; rat, in vivo): completely attenuated; also recorded: attenuated the antinociceptive effects | Effect on oxycodone antinociception (Sprague-Dawley rats [11]; rat, in vivo): minor effect on the observed antinocicepfion; also recorded: magnitude of antinociception did not appear to be significantly reduced during the first 15 min; also recorded: almost no effect; also recorded: did not attenuate | Reduction of %MPE values versus untreated rats (Sprague-Dawley rats [11]; rat, in vivo): 5-10%

O=C1CC[C@@]2(O)[C@H]3Cc4ccc(O)c5c4[C@@]2(CCN3CC2CC2)[C@H]1O5 [naltrexone]
Action potential duration (APD) [1]: marked shortening of the action potential duration (APD)

Oc1ccc2c3c1O[C@H]1c4[nH]c5c(c4C[C@@]4(O)[C@@H](C2)N(CC2CC2)CC[C@]314)C[C@@]1(O)[C@H]2Cc3ccc(O)c4c3[C@@]1(CCN2CC1CC1)[C@H]5O4 [nor-BNI, nor-binaltorphimine]
Effect on U69,593 antinociception ([12]; nor-BNI): antagonize the antinociceptive effects | Effect on bremazocine antinociception ([12]; nor-BNI): antagonize the antinociceptive effects | Ki (κ2a-2 opioid receptor): 5.9 nM | Effect on U69,593 antinociception (Sprague-Dawley rats [11]; rat, in vivo): complete attenuation of the antinociceptive effects; also recorded: markedly attenuated | Effect on bremazocine antinociception (Sprague-Dawley rats [11]; rat, in vivo): complete attenuation of the antinociceptive effects; also recorded: markedly attenuated | Effect on morphine antinociception (Sprague-Dawley rats [11]; rat, in vivo): not attenuated; also recorded: no effect; also recorded: did not attenuate | Effect on oxycodone antinociception (Sprague-Dawley rats [11]; rat, in vivo): complete attenuation of the antinociceptive effects; also recorded: markedly attenuated; also recorded: completely attenuated; also recorded: completely attentuated; also recorded: attenuated only by nor-BNI

CCC12CCN(CC3CC3)C(C(=O)c3ccc(O)cc31)C2C (centres unmarked) [ethylketazocine]
Antinociception profile (κ-opioid receptors): antinociception characterised by a rapid onset of action and a single antinociceptive phase

Oc1ccc2c3c1O[C@H]1c4[nH]c5ccccc5c4C[C@@]4(O)[C@@H](C2)N(CC2CC2)CC[C@]314 [naltrindole]
Selectivity for δ- relative to μ-opioid receptors [13]: 100 fold | Selectivity for δ- relative to κ-opioid receptors [14]: 10,000 fold | %MPE values versus pre-dosing baseline (Sprague-Dawley rats [11]; rat, in vivo): not significantly different (p>0.05) from pre-dosing baseline values | Effect on DPDPE antinociception (Sprague-Dawley rats [11]; rat, in vivo): significantly attenuated (p<0.05); also recorded: completely attenuated | Effect on oxycodone antinociception (Sprague-Dawley rats [11]; rat, in vivo): did not significantly attenuate (p>0.05); also recorded: failed to attenuate
